Assay results as given in patent US10040789B2, “1,3,4-thiadiazole compounds and their use in treating cancer” (AstraZeneca AB, priority 2015, dated 2018).
Read-outs that look alike come from different tables or passages of the source.

Key:
NCI-H1703 cells = assay: GLS Cell Proliferation Assay (NCI-H1703 cell proliferation); format: cell-based
Description: (§1) The following assays were used to measure the effects of the compounds described herein: a) GLS Enzyme Potency Assay; b) GLS Cell Potency Assay; c) GLS Cell Proliferation Assay. During the description of the assays, generally: • i. The following abbreviations have been used: CO2=Carbon dioxide; DMEM=Dulbecco's Modified Eagle Medium; DMSO=Dimethyl sulphoxide; EDTA=Ethylenediaminetetraacetic acid; EGTA=Ethylene glycol tetraacetic acid; FCS=Foetal calf serum; h=Hour(s); NBS=Non-binding surface; SDS=Sodium dodecyl sulphate; TRIS=Tris(Hydroxymethyl)aminomethane. • ii. IC50 values were calculated using a smart fitting model in Genedata.
Assay c): GLS Cell Proliferation Assay
The ability of compounds to inhibit cell growth was measured using a 384 well plate NCI-H1703 cell proliferation assay. NCI-H1703 cells were grown in phenol red free RPMI1640, 10% FCS and 2 mM glutamine and seeded at a density of 750 cells per well in 40 μl of growth medium into clear-bottom 384 well assay plates (Corning product code 3712) and incubated for 24 h at 37° C., 5% CO2. Test compounds were prepared by dilution in 100% DMSO to give the correct dose range for 12 point concentration response and an appropriate volume (5-120 nl) dispensed directly into the assay plates containing plated cells. DMSO concentration was maintained at 0.3% by back filling with DMSO solution. Plates were incubated for 5 days at 37° C., 5% CO2, Sytox Green and Saponin added to final concentration of 2 μM and 0.25% respectively and incubated for 6 h prior to analysis. Plates were read on an Acumen eX3 (TTP Labtech) using 488 nm excitation and FITC filter set (500-530 nm) for emission. IC50 values were calculated by curve fitting to max inhibition of day zero growth using GeneData software analysis.

GLS1 = GLS1 (Homo sapiens (Human), UniProt O94925); assay: GLS Enzyme Potency Assay (Glutamate Oxidase/AmplexRed coupled assay); format: biochemical
Sequence of GLS1 (O94925 63-669): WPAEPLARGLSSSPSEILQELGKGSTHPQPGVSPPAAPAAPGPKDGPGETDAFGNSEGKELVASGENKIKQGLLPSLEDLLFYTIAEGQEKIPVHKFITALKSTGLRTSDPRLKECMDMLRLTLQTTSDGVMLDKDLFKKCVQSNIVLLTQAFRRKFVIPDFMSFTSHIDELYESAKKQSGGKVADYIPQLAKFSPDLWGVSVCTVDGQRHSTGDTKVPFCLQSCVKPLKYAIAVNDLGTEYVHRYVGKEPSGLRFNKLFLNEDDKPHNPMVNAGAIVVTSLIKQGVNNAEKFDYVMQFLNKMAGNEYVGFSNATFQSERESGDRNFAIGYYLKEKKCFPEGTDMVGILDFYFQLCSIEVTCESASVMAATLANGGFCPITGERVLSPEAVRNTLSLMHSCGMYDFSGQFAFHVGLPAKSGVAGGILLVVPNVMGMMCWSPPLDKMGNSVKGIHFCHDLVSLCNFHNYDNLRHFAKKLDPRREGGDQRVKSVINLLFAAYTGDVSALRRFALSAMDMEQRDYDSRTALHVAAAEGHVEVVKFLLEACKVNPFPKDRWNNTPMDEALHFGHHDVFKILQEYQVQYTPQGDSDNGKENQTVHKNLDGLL
Description: as §1
Assay a): GLS Enzyme Potency Assay
A Glutamate Oxidase/AmplexRed coupled assay was used to measure the ability of compounds to bind to and inhibit the activity of GLS1 in vitro. […] GLS1 was diluted to 2×working concentration and incubated at room temperature to allow the tetrameric/dimeric forms to reach steady state. Assay measurements were performed in buffer comprising 50 mM TRIS pH 7.8, 100 mM NaPO4, pH 7.8, 0.001% v/v Tween20. […] DMSO concentration was maintained at 2% by back filling with DMSO solution. […] 3 μL of 100 mM glutamine diluted in assay buffer was then added and the reaction incubated at room temperature for 60 minutes. […] An artefact version of the assay where the 6His tagged GLS protein and glutamine were replaced with assay buffer was also used to rule out non specific effects on the assay components.

[1] = target: cellular GLS activity in PC3 cells (Homo sapiens (Human), UniProt O94925); assay: GLS Cell Potency Assay (PC3 coupled assay measuring cellular glutamate depletion); format: cell-based; conditions: PC3 cells, 6 h incubation, cellular glutamate depletion; read-out: Assay b) GLS cell MOA Mean IC50
Sequence of cellular GLS activity in PC3 cells (O94925 55-669): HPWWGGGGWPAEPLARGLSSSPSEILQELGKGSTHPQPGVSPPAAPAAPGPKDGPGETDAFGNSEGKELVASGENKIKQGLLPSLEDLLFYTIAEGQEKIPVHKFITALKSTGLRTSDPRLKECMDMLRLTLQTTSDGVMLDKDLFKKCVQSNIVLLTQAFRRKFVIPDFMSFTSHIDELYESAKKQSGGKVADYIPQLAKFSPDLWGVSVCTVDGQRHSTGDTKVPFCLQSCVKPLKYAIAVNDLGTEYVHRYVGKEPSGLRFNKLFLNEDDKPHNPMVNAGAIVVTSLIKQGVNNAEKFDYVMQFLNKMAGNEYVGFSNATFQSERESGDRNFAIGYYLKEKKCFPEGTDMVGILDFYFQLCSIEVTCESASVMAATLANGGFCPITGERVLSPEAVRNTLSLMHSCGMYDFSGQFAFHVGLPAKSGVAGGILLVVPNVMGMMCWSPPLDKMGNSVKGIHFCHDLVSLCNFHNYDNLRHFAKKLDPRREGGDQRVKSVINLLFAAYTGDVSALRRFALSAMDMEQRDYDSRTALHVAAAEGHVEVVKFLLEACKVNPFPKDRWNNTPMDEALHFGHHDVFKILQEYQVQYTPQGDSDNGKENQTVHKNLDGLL
Description: as §1
Assay b): GLS Cell Potency Assay
Compounds were assessed for their potential to inhibit cellular GLS activity by use of a PC3 coupled assay measuring cellular glutamate depletion. […] DMSO concentration was maintained at 0.3% by back filling with DMSO solution. PC3 cells were grown in phenol free DMEM, 10% dialyzed FCS, 2 mM glutamine and following dispersal by trypsinisation were plated at 5.6×10^3 cells per well in 40 μl of growth medium directly into the 384 well assay plates containing dispensed compound. After incubation for 6 h at 37° C., 5% CO2 growth media was aspirated and cells lysed in 15 μl of buffer containing 10 mM TRIS pH7.4, 100 mM NaCl, 1 mM EDTA, 1 mM EGTA, 1 mM NaF, 20 mM Na4P2O7, 2 mM Na3VO4, 1% Triton X-100, 10% glycerol, 0.1% SDS and 0.5% deoxycholate. 4 μl Of cell lysate was then transferred to a 384 well NBS plate (Corning product code 3575) and 35 μl of […] Amplex Red, 0.1375 U/mL Horseradish Peroxidase, 0.044 U/mL glutamate oxidase, 100 mM TRIS pH7.5 was added.

[2] = Homo sapiens, 120 h; NCI-H1703 cells, 5 days incubation, Sytox Green; read-out: Assay c) Prolif Mean IC50
[3] = Homo sapiens, NCI-H1703, 120 h, NCI-H1703 cells, 5 days incubation, Sytox Green; read-out: Assay c) Prolif Mean IC50
[4] = recombinant 6His tagged GLS protein (amino acids 63-669), 60 minutes reaction with glutamine

| SMILES | IC50 (NCI-H1703 cells; [2]) | IC50 (GLS1) | IC50 [1] | IC50 (NCI-H1703 cells; [3]) | IC50 (GLS1; [4]) | IC50 (NCI-H1703 cells; NCI-H1703 cells, 5 days incubation, Sytox Green; read-out: Assay c) Prolif Mean IC50) |
| --- | --- | --- | --- | --- | --- | --- |
| CN(C)[C@@H](C(=O)Nc1nnc(N[C@@H]2CCN(c3cccnn3)C2)s1)c1ccccc1 (single isomer, unassigned) [Example 1(b)] | 54.7 nM |  |  |  |  |  |
| CN(C)[C@@H](C(=O)Nc1nnc(N[C@@H]2CCN(c3cccnn3)C2)s1)c1ccc(F)cc1 (single isomer, unassigned) [Example 2(b)] | 97.9 nM |  |  |  |  |  |
| CN(C)[C@@H](C(=O)Nc1nnc(N[C@@H]2CCN(c3cccnn3)C2)s1)c1cccc(OC(F)(F)F)c1 (single isomer, unassigned) [Example 4(b)] |  | 522 nM | 1.91 nM | 2.52 nM |  |  |
| O=C(Nc1nnc(N[C@@H]2CCN(c3cccnn3)C2)s1)[C@@H](c1cccc(OC(F)F)c1)N1CCC1 (single isomer, unassigned) [Example 5(b)] | 13.2 nM |  |  |  |  |  |
| COc1cccc([C@H](C(=O)Nc2nnc(N[C@@H]3CCN(c4cccnn4)C3)s2)N2CCC2)c1 (single isomer, unassigned) [Example 6(b)] |  | 944 nM | 29.7 nM | 80.8 nM |  |  |
| O=C(Nc1nnc(N[C@@H]2CCN(c3cccnn3)C2)s1)[C@@H](c1ccc(F)c(OC(F)(F)F)c1)N1CCC1 (single isomer, unassigned) [Example 11(b)] |  | 132 nM | 1.77 nM | 30.1 nM |  |  |
| CN(C)[C@H](C(=O)Nc1nnc(N[C@@H]2CCN(c3cccnn3)C2)s1)c1ccccc1 [Example 1(a), (2S)-2-(Dimethylamino)-2-phenyl-N-[5-[[(3R)-1-pyridazin-3-ylpyrrolidin-3-yl]amino]-1,3,4-thiadiazol-2-yl]acetamide] | 68.6 nM |  |  |  |  |  |
| CN(C)[C@H](C(=O)Nc1nnc(N[C@@H]2CCN(c3cccnn3)C2)s1)c1ccc(F)cc1 [Example 2(a), (2S)-2-(dimethylamino)-2-(4-fluorophenyl)-N-[5-[[(3R)-1-pyridazin-3-ylpyrrolidin-3-yl]amino]-1,3,4-thiadiazol-2-yl]acetamide] | 89.6 nM |  |  |  |  |  |
| CN(C)[C@H](C(=O)Nc1nnc(N[C@@H]2CCN(c3cccnn3)C2)s1)c1cccc(OC(F)F)c1 [Example 3(a), (2S)-2-[3-(difluoromethoxy)phenyl]-2-(dimethylamino)-N-[5-[[(3R)-1-pyridazin-3-ylpyrrolidin-3-yl]amino]-1,3,4-thiadiazol-2-yl]acetamide] | 12.7 nM |  | 11.2 nM |  | 261 nM |  |
| CN(C)[C@@H](C(=O)Nc1nnc(N[C@@H]2CCN(c3cccnn3)C2)s1)c1cccc(OC(F)F)c1 [Example 3(b), (2R)-2-[3-(difluoromethoxy)phenyl]-2-(dimethylamino)-N-[5-[[(3R)-1-pyridazin-3-ylpyrrolidin-3-yl]amino]-1,3,4-thiadiazol-2-yl]acetamide] | 8.25 nM | 52.4 nM | 0.295 nM |  |  |  |
| CN(C)[C@H](C(=O)Nc1nnc(N[C@@H]2CCN(c3cccnn3)C2)s1)c1cccc(OC(F)(F)F)c1 [Example 4(a), (2S)-2-(dimethylamino)-N-[5-[[(3R)-1-pyridazin-3-ylpyrrolidin-3-yl]amino]-1,3,4-thiadiazol-2-yl]-2-[3-(trifluoromethoxy)phenyl]acetamide] |  |  | 0.405 nM |  | 56.4 nM | 8.41 nM |
| O=C(Nc1nnc(N[C@@H]2CCN(c3cccnn3)C2)s1)[C@H](c1cccc(OC(F)F)c1)N1CCC1 [Example 5(a), (2S)-2-(azetidin-1-yl)-2-[3-(difluoromethoxy)phenyl]-N-[5-[[(3R)-1-pyridazin-3-ylpyrrolidin-3-yl]amino]-1,3,4-thiadiazol-2-yl]acetamide] | 29.3 nM |  |  |  |  |  |
| COc1cccc([C@@H](C(=O)Nc2nnc(N[C@@H]3CCN(c4cccnn4)C3)s2)N2CCC2)c1 [Example 6(a), (2S)-2-(azetidin-1-yl)-2-(3-methoxyphenyl)-N-[5-[[(3R)-1-pyridazin-3-ylpyrrolidin-3-yl]amino]-1,3,4-thiadiazol-2-yl]acetamide] |  |  | 22 nM | 29.3 nM | 981 nM |  |
| O=C(Nc1nnc(N[C@@H]2CCN(c3cccnn3)C2)s1)[C@H](c1cccc(OC(F)(F)F)c1)N1CCC1 [Example 7(a), (2S)-2-(azetidin-1-yl)-N-[5-[[(3R)-1-pyridazin-3-ylpyrrolidin-3-yl]amino]-1,3,4-thiadiazol-2-yl]-2-[3-(trifluoromethoxy)phenyl]acetamide] | 6.24 nM |  | 8.61 nM |  | 1330 nM |  |
| O=C(Nc1nnc(N[C@@H]2CCN(c3cccnn3)C2)s1)[C@@H](c1cccc(OC(F)(F)F)c1)N1CCC1 [Example 7(b), (2R)-2-(azetidin-1-yl)-N-[5-[[(3R)-1-pyridazin-3-ylpyrrolidin-3-yl]amino]-1,3,4-thiadiazol-2-yl]-2-[3-(trifluoromethoxy)phenyl]acetamide] | 2.45 nM | 102 nM | 0.985 nM |  |  |  |
| CN1CCc2ccccc2[C@H]1C(=O)Nc1nnc(N[C@@H]2CCN(c3cccnn3)C2)s1 [Example 8(a), (1S)-2-methyl-N-[5-[[(3R)-1-pyridazin-3-ylpyrrolidin-3-yl]amino]-1,3,4-thiadiazol-2-yl]-3,4-dihydro-1H-isoquinoline-1-carboxamide] | 8.81 nM |  | 1.91 nM |  | 53 nM |  |
| CN1CCc2ccccc2[C@@H]1C(=O)Nc1nnc(N[C@@H]2CCN(c3cccnn3)C2)s1 [Example 8(b), (1R)-2-methyl-N-[5-[[(3R)-1-pyridazin-3-ylpyrrolidin-3-yl]amino]-1,3,4-thiadiazol-2-yl]-3,4-dihydro-1H-isoquinoline-1-carboxamide] | 85.1 nM | 194 nM | 20.9 nM |  |  |  |
| Cc1ccc([C@@H](C(=O)Nc2nnc(N[C@@H]3CCN(c4cccnn4)C3)s2)N(C)C)cc1 [Example 9, (2S)-2-(dimethylamino)-2-(4-methylphenyl)-N-[5-[[(3R)-1-pyridazin-3-ylpyrrolidin-3-yl]amino]-1,3,4-thiadiazol-2-yl]acetamide] | 44.8 nM |  | 2.81 nM |  | 132 nM |  |
| Cc1cccc([C@@H](C(=O)Nc2nnc(N[C@@H]3CCN(c4cccnn4)C3)s2)N(C)C)c1 [Example 10, (2S)-2-(dimethylamino)-2-(3-methylphenyl)-N-[5-[[(3R)-1-pyridazin-3-ylpyrrolidin-3-yl]amino]-1,3,4-thiadiazol-2-yl]acetamide] | 21.2 nM |  | 2.12 nM |  | 59.2 nM |  |
| O=C(Nc1nnc(N[C@@H]2CCN(c3cccnn3)C2)s1)[C@H](c1ccc(F)c(OC(F)(F)F)c1)N1CCC1 [Example 11(a), (2S)-2-(Azetidin-1-yl)-2-[4-fluoro-3-(trifluoromethoxy)phenyl]-N-[5-[[(3R)-1-pyridazin-3-ylpyrrolidin-3-yl]amino]-1,3,4-thiadiazol-2-yl]acetamide] |  |  | 30.8 nM | 19.1 nM | 952 nM |  |
| O=C(Nc1nnc(N[C@@H]2CCN(c3ccc(F)nn3)C2)s1)[C@H](c1cccc(OC(F)(F)F)c1)N1CCC1 [Example 12(a), (2S)-2-(azetidin-1-yl)-N-[5-[[(3R)-1-(6-fluoropyridazin-3-yl)pyrrolidin-3-yl]amino]-1,3,4-thiadiazol-2-yl]-2-[3-(trifluoromethoxy)phenyl]acetamide] | 11.6 nM |  | 15.3 nM |  | 2510 nM |  |
